Test results taken from US8247170B2, “Detection of penicillin tolerance in Group B Streptococcus: single nucleotide polymorphisms in penicillin binding protein 4” (priority 2008, dated 2012).

Test system: GBS clinical isolates and laboratory strains
Test: Macrobroth penicillin tolerance assay
Format: cell-based, Group B Streptococcus
Settings: then 24 h drug-free; for 10xMIC, regrowth O.D.600: Penicillin G 10×MIC90 48 h; for 30xMIC, regrowth O.D.600: Penicillin G 30×MIC90 48 h; for 100xMIC, regrowth O.D.600: Penicillin G 100×MIC90 48 h; for 300xMIC, regrowth O.D.600: Penicillin G 300×MIC90 48 h
Protocol: Using this modified penicillin tolerance assay, tolerant strains from the GBS clinical isolates can be more efficiently identified. In this macrobroth culture format, 25 ml THB broth GBS cultures (containing clinical isolates) were grown to an early exponential growth phase (˜0.2 OD600). Cell cultures (6 ml) were collected and divided into 4 culture tubes. […] Cell cultures were shaken at 150 rpm in order to maintain cells in suspension for proper growth. Subcultures (1/20 dilution) of cells were put into fresh THB containing […] Penase (i.e., 100 μl of Penase 10,000 U stock into 4 ml THB culture). Subcultures were allowed to grow for 24 hours at 37° C. Cell growth was monitored by OD (see Example 2).
(I) Bacterial Strains and Culture Conditions. GBS strains A909 (serotype IA), 515 (serotype IA), NEM316 (serotype III), COHI (serotype III), 2603V/R (serotype V) and O90R (non-typable) were used in this study. E. coli Top10 cells were used for the recombination experiments. GBS was cultured in Todd Hewitt broth (THB) or Tryptic Soy 5% sheep blood (TS) media and E. coli in Luria-broth (LB) medium or agar. Antibiotics were used at the following concentrations: for GBS—penicillin G (MIC90 0.06 μg ml^−1), ampicillin (MIC90 0.12 μg ml^−1), vancomycin (MIC90 2 μg ml^−1), cefazolin (MIC90 1 μg ml^−1) and chloramphenicol (5 μg ml^−1); for E. coli—ampicillin (50 μg ml^−1) and chloramphenicol (5 μg ml^−1). Both GBS and E. coli cultures were grown at 37° C. (II) Tolerance Using the MBC:MIC Ratio Method. Three GBS laboratory strains (i.e., A909, NEM316, and O90R) were cultured overnight for 18 h at 37° C. in THB. Subcultures in THB were subsequently grown to exponential phase (OD600˜0.3; i.e. 5×10^5 cfu/ml) at 37° C. Cell cultures were then exposed to different concentrations of antibiotics (Penicillin G, Ampicillin, Cefozolin or Vancomycin). […] Cell cultures were dispersed every 18 h before OD600 was measured to determine the lowest concentration of antibiotic with 90% growth inhibition (MIC90). Antibiotic treated cells (8 μl) from each well were re-suspended into PBS (100 μl) and plated (54 μl) on TS agar plates and allowed to grow for an additional 24 h at 37° C. Cell count was performed to determine the lowest concentration of antibiotic with 90% killing of original inoculums (MBC90). (III) Penicillin Killing and Regrowth Tolerance Assay by Microbroth Dilution. Three GBS laboratory strains (i.e., A909, NEM316, and O90R) were cultured overnight for 18 h at 37° C. in THB. Subcultures in THB were subsequently grown to exponential phase (OD600˜0.3) at 37° C. Cell cultures were then exposed to different concentrations of Penicillin G (Sigma, St. Louis, Mo.). […] Cell cultures were dispersed. A 1:20 dilution of cells was re-plated into new wells containing fresh THB with 500 U Penase (to degrade residual penicillin). Cell cultures were allowed to re-grow for an additional 24 h at 37° C. before the OD600 was measured. (IV) Measuring Cell Viability by Determining ATP Concentration. GBS strains were cultured for 18 h at 37° C. in THB. These cells were inoculated into fresh THB and subsequently allowed to grow to exponential phase (OD600 0.25-0.3) at 37° C. One ml of each culture was centrifuged at 5,000×g for 4 min. The cell pellet was re-suspended in ATP-free water. Cellular ATP was extracted using trichloroacetic acid (TCA) (5%) for 2 min and subsequently neutralized with Tris-EDTA-0.1M NaOAc, pH 7.75 to 10×TCA volume. The initial (in.) cellular ATP concentration ([ATP]) was measured using the ENLITEN (Promega) luciferase based reaction kit. THB cultures were then treated with 100×MIC90 Penicillin G for 22 h. The experimental (exp.) cellular ATP was extracted and the concentration was measured as stated above. Based on the calculations ([ATP] exp.)/([ATP] in./O.D. in.), differences in viability were equated with the change in [ATP]. (V) Measuring Penicillin Induced Lysis. Three GBS laboratory strains (A909, NEM316, and O90R) were cultured for 18 h at 37° C. in THB. […]

CC1(C)S[C@@H]2[C@H](NC(=O)Cc3ccccc3)C(=O)N2[C@H]1C(=O)O [Penicillin G]
10xMIC, regrowth O.D.600 (GBS strain 308 (V)): −− (“−−” indicates an O.D.600 of 0.001 to 0.099)
30xMIC, regrowth O.D.600 (GBS strain 308 (V)): −− (“−−” indicates an O.D.600 of 0.001 to 0.099)
100xMIC, regrowth O.D.600 (GBS strain 308 (V)): −− (“−−” indicates an O.D.600 of 0.001 to 0.099)
300xMIC, regrowth O.D.600 (GBS strain 308 (V)): −− (“−−” indicates an O.D.600 of 0.001 to 0.099)
10xMIC, regrowth O.D.600 (GBS strain 311 (Ib)): −− (“−−” indicates an O.D.600 of 0.001 to 0.099)
30xMIC, regrowth O.D.600 (GBS strain 311 (Ib)): −− (“−−” indicates an O.D.600 of 0.001 to 0.099)
100xMIC, regrowth O.D.600 (GBS strain 311 (Ib)): + (“+” indicates an O.D.600 of 0.100 to 0.250)
300xMIC, regrowth O.D.600 (GBS strain 311 (Ib)): + (“+” indicates an O.D.600 of 0.100 to 0.250)
10xMIC, regrowth O.D.600 (GBS strain 316 (V)): −− (“−−” indicates an O.D.600 of 0.001 to 0.099)
30xMIC, regrowth O.D.600 (GBS strain 316 (V)): −− (“−−” indicates an O.D.600 of 0.001 to 0.099)
100xMIC, regrowth O.D.600 (GBS strain 316 (V)): −− (“−−” indicates an O.D.600 of 0.001 to 0.099)
300xMIC, regrowth O.D.600 (GBS strain 316 (V)): −− (“−−” indicates an O.D.600 of 0.001 to 0.099)
10xMIC, regrowth O.D.600 (GBS strain 320 (III)): +++ (“+++” indicates an O.D.600 of 0.751 to 1.500)
30xMIC, regrowth O.D.600 (GBS strain 320 (III)): +++ (“+++” indicates an O.D.600 of 0.751 to 1.500)
100xMIC, regrowth O.D.600 (GBS strain 320 (III)): +++ (“+++” indicates an O.D.600 of 0.751 to 1.500)
300xMIC, regrowth O.D.600 (GBS strain 320 (III)): +++ (“+++” indicates an O.D.600 of 0.751 to 1.500)
10xMIC, regrowth O.D.600 (GBS strain 357 (NT)): −− (“−−” indicates an O.D.600 of 0.001 to 0.099)
30xMIC, regrowth O.D.600 (GBS strain 357 (NT)): −− (“−−” indicates an O.D.600 of 0.001 to 0.099)
100xMIC, regrowth O.D.600 (GBS strain 357 (NT)): +++ (“+++” indicates an O.D.600 of 0.751 to 1.500)
300xMIC, regrowth O.D.600 (GBS strain 357 (NT)): ++ (“++” indicates an O.D.600 of 0.251 to 0.750)
10xMIC, regrowth O.D.600 (GBS strain 359 (V)): −− (“−−” indicates an O.D.600 of 0.001 to 0.099)
30xMIC, regrowth O.D.600 (GBS strain 359 (V)): −− (“−−” indicates an O.D.600 of 0.001 to 0.099)
100xMIC, regrowth O.D.600 (GBS strain 359 (V)): −− (“−−” indicates an O.D.600 of 0.001 to 0.099)
300xMIC, regrowth O.D.600 (GBS strain 359 (V)): −− (“−−” indicates an O.D.600 of 0.001 to 0.099)
10xMIC, regrowth O.D.600 (GBS strain 367 (V)): −− (“−−” indicates an O.D.600 of 0.001 to 0.099)
30xMIC, regrowth O.D.600 (GBS strain 367 (V)): −− (“−−” indicates an O.D.600 of 0.001 to 0.099)
100xMIC, regrowth O.D.600 (GBS strain 367 (V)): −− (“−−” indicates an O.D.600 of 0.001 to 0.099)
300xMIC, regrowth O.D.600 (GBS strain 367 (V)): −− (“−−” indicates an O.D.600 of 0.001 to 0.099)
10xMIC, regrowth O.D.600 (GBS strain 377 (V)): −− (“−−” indicates an O.D.600 of 0.001 to 0.099)
30xMIC, regrowth O.D.600 (GBS strain 377 (V)): −− (“−−” indicates an O.D.600 of 0.001 to 0.099)
100xMIC, regrowth O.D.600 (GBS strain 377 (V)): −− (“−−” indicates an O.D.600 of 0.001 to 0.099)
300xMIC, regrowth O.D.600 (GBS strain 377 (V)): −− (“−−” indicates an O.D.600 of 0.001 to 0.099)
10xMIC, regrowth O.D.600 (GBS strain 378 (NT)): −− (“−−” indicates an O.D.600 of 0.001 to 0.099)
30xMIC, regrowth O.D.600 (GBS strain 378 (NT)): −− (“−−” indicates an O.D.600 of 0.001 to 0.099)
100xMIC, regrowth O.D.600 (GBS strain 378 (NT)): −− (“−−” indicates an O.D.600 of 0.001 to 0.099)
300xMIC, regrowth O.D.600 (GBS strain 378 (NT)): −− (“−−” indicates an O.D.600 of 0.001 to 0.099)
10xMIC, regrowth O.D.600 (GBS strain 379 (V)): −− (“−−” indicates an O.D.600 of 0.001 to 0.099)
30xMIC, regrowth O.D.600 (GBS strain 379 (V)): −− (“−−” indicates an O.D.600 of 0.001 to 0.099)
100xMIC, regrowth O.D.600 (GBS strain 379 (V)): −− (“−−” indicates an O.D.600 of 0.001 to 0.099)
300xMIC, regrowth O.D.600 (GBS strain 379 (V)): −− (“−−” indicates an O.D.600 of 0.001 to 0.099)
10xMIC, regrowth O.D.600 (GBS strain 380 (NT)): −− (“−−” indicates an O.D.600 of 0.001 to 0.099)
30xMIC, regrowth O.D.600 (GBS strain 380 (NT)): −− (“−−” indicates an O.D.600 of 0.001 to 0.099)
100xMIC, regrowth O.D.600 (GBS strain 380 (NT)): +++ (“+++” indicates an O.D.600 of 0.751 to 1.500)
300xMIC, regrowth O.D.600 (GBS strain 380 (NT)): + (“+” indicates an O.D.600 of 0.100 to 0.250)
10xMIC, regrowth O.D.600 (GBS strain 388 (NT)): −− (“−−” indicates an O.D.600 of 0.001 to 0.099)
30xMIC, regrowth O.D.600 (GBS strain 388 (NT)): −− (“−−” indicates an O.D.600 of 0.001 to 0.099)
100xMIC, regrowth O.D.600 (GBS strain 388 (NT)): −− (“−−” indicates an O.D.600 of 0.001 to 0.099)
300xMIC, regrowth O.D.600 (GBS strain 388 (NT)): −− (“−−” indicates an O.D.600 of 0.001 to 0.099)
10xMIC, regrowth O.D.600 (GBS strain 389 (Ia)): ++ (“++” indicates an O.D.600 of 0.251 to 0.750)
30xMIC, regrowth O.D.600 (GBS strain 389 (Ia)): +++ (“+++” indicates an O.D.600 of 0.751 to 1.500)
100xMIC, regrowth O.D.600 (GBS strain 389 (Ia)): +++ (“+++” indicates an O.D.600 of 0.751 to 1.500)
300xMIC, regrowth O.D.600 (GBS strain 389 (Ia)): +++ (“+++” indicates an O.D.600 of 0.751 to 1.500)
10xMIC, regrowth O.D.600 (GBS strain 391 (NT)): ++ (“++” indicates an O.D.600 of 0.251 to 0.750)
30xMIC, regrowth O.D.600 (GBS strain 391 (NT)): ++ (“++” indicates an O.D.600 of 0.251 to 0.750)
100xMIC, regrowth O.D.600 (GBS strain 391 (NT)): ++ (“++” indicates an O.D.600 of 0.251 to 0.750)
300xMIC, regrowth O.D.600 (GBS strain 391 (NT)): ++ (“++” indicates an O.D.600 of 0.251 to 0.750)
10xMIC, regrowth O.D.600 (GBS strain 399 (V)): −− (“−−” indicates an O.D.600 of 0.001 to 0.099)
30xMIC, regrowth O.D.600 (GBS strain 399 (V)): + (“+” indicates an O.D.600 of 0.100 to 0.250)
100xMIC, regrowth O.D.600 (GBS strain 399 (V)): + (“+” indicates an O.D.600 of 0.100 to 0.250)
300xMIC, regrowth O.D.600 (GBS strain 399 (V)): + (“+” indicates an O.D.600 of 0.100 to 0.250)
